According to PubChem BioAssay (NCI):
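Five concentrations, 48 hours, 96-well plates. TGI: total growth inhibition.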

What was measured:
Experiment in all cases: NCI tumour cell line growth inhibition, 48 h
IGROV1 ovarian = tested on: IGROV1 ovarian
HS 578T breast = tested on: HS 578T breast
HCT-15 colon = tested on: HCT-15 colon
EKVX NSCLC = tested on: EKVX NSCLC
HCT-116 colon = tested on: HCT-116 colon
SF-295 CNS = tested on: SF-295 CNS
786-0 renal = tested on: 786-0 renal
RXF 393 renal = tested on: RXF 393 renal
HT29 colon = tested on: HT29 colon
KM12 colon = tested on: KM12 colon
MDA-MB-435 = tested on: MDA-MB-435
OVCAR-8 ovarian = tested on: OVCAR-8 ovarian
T-47D breast = tested on: T-47D breast
DU-145 prostate = tested on: DU-145 prostate
UACC-257 melanoma = tested on: UACC-257 melanoma
MCF7 breast = tested on: MCF7 breast
LOX IMVI melanoma = tested on: LOX IMVI melanoma
OVCAR-5 ovarian = tested on: OVCAR-5 ovarian
ACHN renal = tested on: ACHN renal
NCI-H23 lung = tested on: NCI-H23 lung
UACC-62 melanoma = tested on: UACC-62 melanoma
HOP-62 NSCLC = tested on: HOP-62 NSCLC
NCI/ADR-RES ovarian = tested on: NCI/ADR-RES ovarian
HL-60(TB) leukemia = tested on: HL-60(TB) leukemia
SK-MEL-5 melanoma = tested on: SK-MEL-5 melanoma
UO-31 renal = tested on: UO-31 renal
SK-MEL-28 melanoma = tested on: SK-MEL-28 melanoma
TK-10 renal = tested on: TK-10 renal
U251 CNS = tested on: U251 CNS
SN12C renal = tested on: SN12C renal
CCRF-CEM leukemia = tested on: CCRF-CEM leukemia
OVCAR-4 ovarian = tested on: OVCAR-4 ovarian
MDA-N = tested on: MDA-N
SK-OV-3 ovarian = tested on: SK-OV-3 ovarian
HOP-92 NSCLC = tested on: HOP-92 NSCLC
NCI-H522 lung = tested on: NCI-H522 lung
SF-539 CNS = tested on: SF-539 CNS
SK-MEL-2 melanoma = tested on: SK-MEL-2 melanoma
SNB-19 CNS = tested on: SNB-19 CNS
SNB-75 CNS = tested on: SNB-75 CNS
MDA-MB-231 breast = tested on: MDA-MB-231 breast
NCI-H460 lung = tested on: NCI-H460 lung
COLO 205 colon = tested on: COLO 205 colon
CAKI-1 renal = tested on: CAKI-1 renal
MOLT-4 leukemia = tested on: MOLT-4 leukemia
NCI-H226 lung = tested on: NCI-H226 lung
A498 renal = tested on: A498 renal
RPMI-8226 leukemia = tested on: RPMI-8226 leukemia
PC-3 prostate = tested on: PC-3 prostate
M14 melanoma = tested on: M14 melanoma
SW-620 colon = tested on: SW-620 colon
OVCAR-3 ovarian = tested on: OVCAR-3 ovarian
SF-268 CNS = tested on: SF-268 CNS
SR leukemia = tested on: SR leukemia
A549 NSCLC = tested on: A549 NSCLC
K-562 leukemia = tested on: K-562 leukemia
MALME-3M melanoma = tested on: MALME-3M melanoma
HCC-2998 colon = tested on: HCC-2998 colon
BT-549 breast = tested on: BT-549 breast

`O=C1c2ccccc2-c2oc(=O)c3ccccc3c21` was tested, and the TGI (IGROV1 ovarian) was greater than 100 µM, the TGI (HS 578T breast) was greater than 100 µM and the TGI (HCT-15 colon) was greater than 100 µM. The TGI (EKVX NSCLC) was greater than 100 µM, the TGI (HCT-116 colon) was greater than 100 µM and the TGI (SF-295 CNS) was greater than 100 µM. The TGI (786-0 renal) was greater than 100 µM, the TGI (RXF 393 renal) was greater than 100 µM and the TGI (HT29 colon) was greater than 100 µM. The TGI (KM12 colon) was greater than 100 µM, the TGI (MDA-MB-435) was greater than 100 µM and the TGI (OVCAR-8 ovarian) was greater than 100 µM. For the same compound, the TGI (T-47D breast) was greater than 100 µM, the TGI (DU-145 prostate) was greater than 100 µM and the TGI (UACC-257 melanoma) was greater than 100 µM. It also gave a TGI (MCF7 breast) greater than 100 µM, a TGI (LOX IMVI melanoma) greater than 100 µM and a TGI (OVCAR-5 ovarian) greater than 100 µM. The TGI (ACHN renal) was greater than 100 µM, the TGI (NCI-H23 lung) was greater than 100 µM and the TGI (UACC-62 melanoma) was greater than 100 µM. It also gave a TGI (HOP-62 NSCLC) greater than 100 µM, a TGI (NCI/ADR-RES ovarian) greater than 100 µM and a TGI (HL-60(TB) leukemia) greater than 100 µM. It also gave a TGI (SK-MEL-5 melanoma) greater than 100 µM, a TGI (UO-31 renal) greater than 100 µM and a TGI (SK-MEL-28 melanoma) greater than 100 µM. It also gave a TGI (TK-10 renal) greater than 100 µM, a TGI (U251 CNS) greater than 100 µM and a TGI (SN12C renal) greater than 100 µM. For the same compound, the TGI (CCRF-CEM leukemia) was greater than 100 µM, the TGI (OVCAR-4 ovarian) was greater than 100 µM and the TGI (MDA-N) was greater than 100 µM. For the same compound, the TGI (SK-OV-3 ovarian) was greater than 100 µM, the TGI (HOP-92 NSCLC) was greater than 100 µM and the TGI (NCI-H522 lung) was greater than 100 µM. For the same compound, the TGI (SF-539 CNS) was greater than 100 µM, the TGI (SK-MEL-2 melanoma) was greater than 100 µM and the TGI (SNB-19 CNS) was greater than 100 µM. It also gave a TGI (SNB-75 CNS) greater than 100 µM, a TGI (MDA-MB-231 breast) greater than 100 µM and a TGI (NCI-H460 lung) greater than 100 µM. The TGI (COLO 205 colon) was greater than 100 µM, the TGI (CAKI-1 renal) was greater than 100 µM and the TGI (MOLT-4 leukemia) was greater than 100 µM. It also gave a TGI (NCI-H226 lung) greater than 100 µM, a TGI (A498 renal) greater than 100 µM and a TGI (RPMI-8226 leukemia) greater than 100 µM. For the same compound, the TGI (PC-3 prostate) was greater than 100 µM, the TGI (M14 melanoma) was greater than 100 µM and the TGI (SW-620 colon) was greater than 100 µM. It also gave a TGI (OVCAR-3 ovarian) greater than 100 µM.

In the case of `NC[C@H]1Nc2ccccc2[C@@H](O)C1O` (some centres undefined), the TGI (IGROV1 ovarian) is reported as greater than 100 µM, the TGI (HS 578T breast) is reported as greater than 100 µM and the TGI (HCT-15 colon) is reported as greater than 100 µM. It also gave a TGI (EKVX NSCLC) greater than 100 µM, a TGI (HCT-116 colon) greater than 100 µM and a TGI (SF-295 CNS) greater than 100 µM. For the same compound, the TGI (SF-268 CNS) was greater than 100 µM, the TGI (786-0 renal) was greater than 100 µM and the TGI (RXF 393 renal) was greater than 100 µM. It also gave a TGI (HT29 colon) greater than 100 µM, a TGI (KM12 colon) greater than 100 µM and a TGI (MDA-MB-435) greater than 100 µM. For the same compound, the TGI (OVCAR-8 ovarian) was greater than 100 µM, the TGI (SR leukemia) was greater than 100 µM and the TGI (T-47D breast) was greater than 100 µM. For the same compound, the TGI (DU-145 prostate) was greater than 100 µM, the TGI (A549 NSCLC) was greater than 100 µM and the TGI (UACC-257 melanoma) was greater than 100 µM. It also gave a TGI (MCF7 breast) greater than 100 µM, a TGI (LOX IMVI melanoma) greater than 100 µM and a TGI (OVCAR-5 ovarian) greater than 100 µM. It also gave a TGI (K-562 leukemia) greater than 100 µM, a TGI (ACHN renal) greater than 100 µM and a TGI (NCI-H23 lung) greater than 100 µM. It also gave a TGI (UACC-62 melanoma) greater than 100 µM, a TGI (HOP-62 NSCLC) greater than 100 µM and a TGI (NCI/ADR-RES ovarian) greater than 100 µM. It also gave a TGI (HL-60(TB) leukemia) greater than 100 µM, a TGI (SK-MEL-5 melanoma) greater than 100 µM and a TGI (UO-31 renal) greater than 100 µM. The TGI (SK-MEL-28 melanoma) was greater than 100 µM, the TGI (TK-10 renal) was greater than 100 µM and the TGI (U251 CNS) was greater than 100 µM. It also gave a TGI (SN12C renal) greater than 100 µM, a TGI (CCRF-CEM leukemia) greater than 100 µM and a TGI (OVCAR-4 ovarian) greater than 100 µM. For the same compound, the TGI (MDA-N) was greater than 100 µM, the TGI (SK-OV-3 ovarian) was greater than 100 µM and the TGI (HOP-92 NSCLC) was greater than 100 µM. It also gave a TGI (SF-539 CNS) greater than 100 µM, a TGI (MALME-3M melanoma) greater than 100 µM and a TGI (SK-MEL-2 melanoma) greater than 100 µM. It also gave a TGI (SNB-19 CNS) greater than 100 µM, a TGI (SNB-75 CNS) greater than 100 µM and a TGI (MDA-MB-231 breast) greater than 100 µM. The TGI (NCI-H460 lung) was greater than 100 µM, the TGI (COLO 205 colon) was greater than 100 µM and the TGI (CAKI-1 renal) was greater than 100 µM. For the same compound, the TGI (MOLT-4 leukemia) was greater than 100 µM, the TGI (NCI-H226 lung) was greater than 100 µM and the TGI (RPMI-8226 leukemia) was greater than 100 µM. The TGI (PC-3 prostate) was greater than 100 µM, the TGI (M14 melanoma) was greater than 100 µM and the TGI (HCC-2998 colon) was greater than 100 µM. It also gave a TGI (SW-620 colon) greater than 100 µM and a TGI (OVCAR-3 ovarian) greater than 100 µM.

`CN1C/C(=C\c2cccs2)C2=NN(C)C(c3cccs3)C2C1` (centres undefined) showed a TGI (IGROV1 ovarian) greater than 100 µM, a TGI (HS 578T breast) greater than 100 µM and a TGI (HCT-15 colon) greater than 100 µM. It also gave a TGI (EKVX NSCLC) greater than 100 µM, a TGI (HCT-116 colon) greater than 100 µM and a TGI (SF-295 CNS) greater than 100 µM. The TGI (SF-268 CNS) was greater than 100 µM, the TGI (786-0 renal) was greater than 100 µM and the TGI (RXF 393 renal) was greater than 100 µM. The TGI (HT29 colon) was greater than 100 µM, the TGI (KM12 colon) was greater than 100 µM and the TGI (MDA-MB-435) was greater than 100 µM. It also gave a TGI (OVCAR-8 ovarian) greater than 100 µM, a TGI (T-47D breast) greater than 100 µM and a TGI (DU-145 prostate) greater than 100 µM. For the same compound, the TGI (A549 NSCLC) was greater than 100 µM, the TGI (UACC-257 melanoma) was greater than 100 µM and the TGI (MCF7 breast) was greater than 100 µM. It also gave a TGI (LOX IMVI melanoma) greater than 100 µM, a TGI (OVCAR-5 ovarian) greater than 100 µM and a TGI (K-562 leukemia) greater than 100 µM. It also gave a TGI (ACHN renal) greater than 100 µM, a TGI (NCI-H23 lung) greater than 100 µM and a TGI (UACC-62 melanoma) greater than 100 µM. The TGI (HOP-62 NSCLC) was greater than 100 µM, the TGI (NCI/ADR-RES ovarian) was greater than 100 µM and the TGI (HL-60(TB) leukemia) was 43.6 µM. It also gave a TGI (SK-MEL-5 melanoma) greater than 100 µM, a TGI (UO-31 renal) greater than 100 µM and a TGI (SK-MEL-28 melanoma) greater than 100 µM. For the same compound, the TGI (TK-10 renal) was greater than 100 µM, the TGI (U251 CNS) was greater than 100 µM and the TGI (SN12C renal) was greater than 100 µM. For the same compound, the TGI (CCRF-CEM leukemia) was greater than 100 µM, the TGI (OVCAR-4 ovarian) was greater than 100 µM and the TGI (MDA-N) was greater than 100 µM. It also gave a TGI (SK-OV-3 ovarian) greater than 100 µM, a TGI (HOP-92 NSCLC) greater than 100 µM and a TGI (NCI-H522 lung) greater than 100 µM. It also gave a TGI (MALME-3M melanoma) greater than 100 µM, a TGI (SK-MEL-2 melanoma) of 81.2 µM and a TGI (SNB-19 CNS) greater than 100 µM. For the same compound, the TGI (MDA-MB-231 breast) was greater than 100 µM, the TGI (NCI-H460 lung) was greater than 100 µM and the TGI (COLO 205 colon) was greater than 100 µM. It also gave a TGI (CAKI-1 renal) greater than 100 µM, a TGI (BT-549 breast) greater than 100 µM and a TGI (MOLT-4 leukemia) greater than 100 µM. It also gave a TGI (NCI-H226 lung) greater than 100 µM, a TGI (A498 renal) greater than 100 µM and a TGI (RPMI-8226 leukemia) of 95.3 µM. It also gave a TGI (PC-3 prostate) greater than 100 µM, a TGI (M14 melanoma) greater than 100 µM and a TGI (HCC-2998 colon) greater than 100 µM. For the same compound, the TGI (SW-620 colon) was greater than 100 µM and the TGI (OVCAR-3 ovarian) was greater than 100 µM.
